Measured values published in patent US6486161B1, “Use of rifamycin derivative for treating mastitis in a domestic animal” (priority 2000, dated 2002).
In brackets after ≈: the same amount, converted by molar mass. Like-named read-outs stand apart in the source and are kept apart here.

How the values were obtained:
[1] = Oral toxicity in mice; type: in vivo; conditions: orally administered to mice, 1,000 mg/kg
[2] = system: S. aureus ATCC 29213; assay: MIC, microbroth dilution, strain ATCC 29213; type: cell-based, Staphylococcus aureus
Procedure: (§1) Four S. aureus strains were used: S. aureus 30857, a rifampin-resistant isolate: S. aureus 6097, a strain used in the mouse mastitis test and originally from a case of gangrenous bovine mastitis; S. aureus B83-1, derived from the Newbould 305 strain; and S. aureus ATCC 29213, the in vitro control stain recommended by NCCLS.
(§2) All S. aureus strains were maintained on 3 mm glass beads immersed in trypticase soy broth (BBL Microbiology Systems, Cockeysville, Md.) with 10% glycerol and held at −70° C. until revived. Prior to testing, the strains were subcultured on tryptose blood agar base (Difco, Detroit, Mich.) supplemented with 5% sheep blood for 24 hours at 35° C.
(§3) These compounds were dissolved in 95% ethanol, a solution which was then diluted to 10% ethanol with sterile distilled water. Further dilutions were conducted in water.
(§4) MIC (Minimum Inhibitory Concentration) determinations were performed using the microbroth dilution method. (National Committee for Clinical Laboratory Standards, 1990 Approved Standard […]. Methods for dilution antimicrobial susceptibility tests for bacteria that grow aerobically, 3rd edition. National Committee for Clinical Laboratory Standards, Villanova, Pa.) The results are shown in Table 3, wherein R is the alkyl group R in the rifamycin derivative (1).

[3] = system: S. aureus B83-1; assay: MIC, microbroth dilution, strain B83-1; type: cell-based, Staphylococcus aureus
Procedure: as §1, §2, §3, §4

[4] = system: Staphylococcus aureus 6097; assay: Dose titration in the mouse mastitis model (S. aureus-induced murine mastitis); type: in vivo; conditions: mice, read 6 days after infection; for ED (mg/kg/d) Mastitis: 50% of mice without mastitis; for ED (mg/kg/d) Culture: 50% of mice with no bacteria cultured from gland
[5] = system: Staphylococcus aureus 9203; assay: S. aureus intracellular killing assay in bovine PMN; type: cell-based; conditions: overnight incubation (18 to 21 hours)
Procedure: The therapeutic effect of the rifamycin derivative (1) was determined by S. aureus intracellular killing assay in bovine polymorphonuclear neutrophil (PMN).
The procedure for PMN isolation was as described in Carlton et al. (Proc. Soc. Exp. Biol. Med. 142: 853-858 (1973)).
Bovine blood collected by venipuncture in 50-ml syringes containing 1.5% EDTA (pH 6.8) was centrifuged at 1,000×g for 25 min. The plasma-buffer layer and the top few millileters were discarded. The packed erythrocyte fraction was pooled in 0.8% NaCl-phosphate buffer (pH 6.8) and 10 ml was placed in 20 ml of sterile water for 40 seconds to lyse the erythrocytes. Immediately thereafter, 10 ml of a 2.7% NaCl-phosphate buffer solution was added to restore isotonicity. The leukocytes, consisting of ≦84% PMNs, were washed twice and suspended in HBSS. PMNs were adjusted to a final concentration of 10^7 cells per ml.
The intracellular killing assay was carried out as described in Sanchez et al. (Antimicrobial Agents and Chemotherapy 29(4): 634-638 (1986)).
Bovine blood PMNs and bacteria (1:1) were suspended in HBSS containing 10% heterologous bovine serum. The mixture was incubated for 90 minutes at 37° C. in Erlenmeyer flasks with rotational mixing at 110 rpm. Lysostaphin (5 μg/ml) was added to the mixture for the final 15 minutes of incubation. The infected PMNs were washed 3 times by low-speed centrifugation and suspended in HBSS. Cells were pipetted (1 ml) into each well of a six-well cluster dish (Bellco Glass, Inc., Vineland, N.J.) at 5×10^6 PMNs per well. PMNs were allowed to attach and form a monolayer for 10 minutes at 37° C. The supernatant fluid with unattached cells was discarded, and 2 ml of fresh HBSS was added to each well. The rifamycin derivatives to be tested were then added to the wells (one six-well plate per drug). These derivatives were dissolved in dimethylsulfoxide, and then diluted in HBSS to final solvent concentrations of 0.01% (vol/vol) or less.
After overnight incubation (18 to 21 hours) at 37° C. with 1% CO2, lysostaphin (5 μg/ml) was added to each well for 15 min (at 37° C.) to kill extracellular bacteria. The monolayers were washed with HBSS, and the cells were lysed by addition of 1 ml of water to each well. The number of viable bacteria was then estimated by plate counts on brain heart infusion agar. […] The results are shown in Table 2, wherein R is the alkyl group in the rifamycin derivative (1).

[6] = system: S. aureus 6097; assay: Mutation frequency for resistance, strain 6097; type: cell-based, Staphylococcus aureus
Procedure: (§5) The mutation frequency for development of resistance to the rifamycin derivative (1) as compared to rifampin was determined with selected Staphylococcus aureus strains.
as §1, §2, §3
(§6) The mutation frequency for development of resistance to the compounds tested was determined by the following method. A single colony of each strain was removed from the surface of a blood agar plate with a cotton swab, suspended in 5 ml of Mueller-Hinton broth (BBL), and streaked on the entire surface of five Mueller-Hinton agar plates. The plates were incubated overnight under aerobic conditions at 35° C., growth was removed from the agar using a sterile cotton swab, and the bacteria were suspended in 10 ml physiological saline. This bacterial suspension was the inoculum for the mutation frequency determinations. Standard plate counts were performed on the inoculum by performing serial dilutions and plating a 0.1 ml aliquot on the surface of ten Mueller-Hinton agar plates at each concentration. The plates were incubated for 18-24 hours at 35° C. under aerobic conditions and colony counts performed. Mean bacterial counts were calculated for the inoculum with each strain.
(§7) A 0.1 ml aliquot of the inoculum was then used to inoculate the entire surface of ten plates each containing 1, 10, and 100 μg/ml of the test antimicrobial agents. The plates were incubated for 18-24 hours at 35° C. under aerobic conditions and colony counts performed. Mean bacterial counts were calculated for each antimicrobial concentration and the mutation frequency calculated by dividing the number of colonies which grew on the drug containing media by the inoculum size.

[7] = system: S. aureus 30857, a rifampin-resistant isolate; type: cell-based, Staphylococcus aureus; conditions: strain 30857
Procedure: as §5, §1, §2, §3, §6, §7

[8] = route IMM (intramammary), 1 hour after infection

Row | Structure (SMILES) | toxicity [1] | MIC [2] | MIC [3] | ED (mg/kg/d) Mastitis [4, 8] | ED (mg/kg/d) Culture ([4]; route IMM (intramammary)) | ED (mg/kg/d) Culture ([4]; route SC (subcutaneous)) | ED (mg/kg/d) Mastitis ([4]; route SC (subcutaneous)) | % reduction ([5]; 1X MIC) | CFU/ml ISD (×10^3) ([5]; 1X MIC) | % reduction ([5]; 100X MIC) | CFU/ml ISD (×10^3) ([5]; 100X MIC) | Mutation frequency ([6]; 1 μg/ml) | Mutation frequency ([6]; 10 μg/ml) | Mutation frequency ([6]; 100 μg/ml) | Mutation frequency ([7]; 1 μg/ml) | Mutation frequency ([7]; 10 μg/ml) | Mutation frequency ([7]; 100 μg/ml) | MIC ([2]; Staphylococcus aureus, ATCC29213, read-out: MIC) | MIC ([3]; Staphylococcus aureus, B831, read-out: MIC)
1 | COC1/C=C/OC2(C)Oc3c(C)c(O)c4c(=O)c(c5oc6cc(N7CCN(C)CC7)cc(O)c6nc-5c4c3C2=O)NC(=O)/C(C)=C\C=C\C(C)C(O)C(C)C(O)C(C)C(OC(C)=O)C1C (stereo not shown) [R = methyl] | did not show any toxicity | 0.061 ng/mL (≈ 0.0679 nM) | 0.061 ng/mL (≈ 0.0679 nM) | 0.3 mg/kg/day | 0.3 mg/kg/day | 0.5 mg/kg/day | 0.2 mg/kg/day | 92.0% | 0.3 ± 0.1 CFU/ml (×10^3) | 100% | 0.0 CFU/ml (×10^3) | 4.0 × 10^−8 | <1.8 × 10^−10 | <1.8 × 10^−10 | <1.6 × 10^−10 | <1.6 × 10^−10 | <1.6 × 10^−10 |  | 
2 | CO[C@H]1/C=C/O[C@@]2(C)Oc3c(C)c(O)c4c(O)c(c(/C=N/N5CCN(C)CC5)c(O)c4c3C2=O)NC(=O)/C(C)=C\C=C\[C@H](C)[C@H](O)[C@@H](C)[C@@H](O)[C@@H](C)[C@H](OC(C)=O)[C@@H]1C [Rifampin, reference compound] |  |  |  | 0.4 mg/kg/day | >2.0 mg/kg/day |  |  | 83.0% | 0.6 ± 0.3 CFU/ml (×10^3) | 85.0% | 0.5 ± 0.2 CFU/ml (×10^3) | 1.2 × 10^−8 | 2.0 × 10^−8 | 4.9 × 10^−9 | >1.0 × 10^−7 | >1.0 × 10^−7 | >1.0 × 10^−7 | 1.9 ng/mL (≈ 2.31 nM) | 1.9 ng/mL (≈ 2.31 nM)
